{"source": "ChEMBL document CHEMBL4052601", "about": "“Glycybridins A-K, Bioactive Phenolic Compounds from Glycyrrhiza glabra” (J Nat Prod, 2017)", "key": {"SW480 [1]": {"test_system": "SW480", "assay": "Antiproliferative activity against human SW480 cells at 10 uM after 24 hrs by MTS assay relative to control", "assay_type": "functional", "settings": "SW480, 24 h"}, "A549 [2]": {"test_system": "A549", "assay": "Induction of apoptosis in human A549 cells assessed as late apoptotic cells at 20 uM after 8 hrs by Annexin V-FITC/propidium iodide staining-based flow cytometric analysis (reference value: 12.02%)", "assay_type": "functional"}, "A549 [3]": {"test_system": "A549", "assay": "Antitumor activity against human A549 cells xenografted in BALB/c nude mouse assessed as reduction in tumor volume at 10 mg/kg, ip administered as daily dose for 16 days relative to control", "assay_type": "functional", "settings": "384 h"}, "HepG2 [4]": {"test_system": "HepG2", "assay": "Antiproliferative activity against human HepG2 cells at 10 uM after 24 hrs by MTS assay relative to control", "assay_type": "functional", "settings": "HepG2, 24 h"}, "[5]": {"target": "T1, Tyrosinase (Homo sapiens) (UniProt P14679)", "T1 sequence (whole entry)": "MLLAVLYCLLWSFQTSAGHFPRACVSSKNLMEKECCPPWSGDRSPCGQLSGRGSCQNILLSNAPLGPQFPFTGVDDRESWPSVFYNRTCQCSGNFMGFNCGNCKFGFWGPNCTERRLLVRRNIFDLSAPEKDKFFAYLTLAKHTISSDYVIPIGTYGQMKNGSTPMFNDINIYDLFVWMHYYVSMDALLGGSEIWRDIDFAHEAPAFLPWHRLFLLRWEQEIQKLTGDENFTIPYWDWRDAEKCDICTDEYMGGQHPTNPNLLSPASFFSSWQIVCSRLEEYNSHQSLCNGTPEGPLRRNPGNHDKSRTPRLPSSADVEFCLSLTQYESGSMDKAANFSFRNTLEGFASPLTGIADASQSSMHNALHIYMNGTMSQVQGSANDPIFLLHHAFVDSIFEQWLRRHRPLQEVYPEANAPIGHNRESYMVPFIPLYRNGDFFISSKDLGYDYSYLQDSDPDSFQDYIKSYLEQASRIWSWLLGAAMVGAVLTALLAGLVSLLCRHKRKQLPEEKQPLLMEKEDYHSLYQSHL", "settings": "at 10 µM", "description": "Inhibition of tyrosinase (unknown origin) using L-tyrosine as substrate at 10 uM preincubated for 15 mins followed by substrate addition relative to control"}, "A549 [6]": {"test_system": "A549", "assay": "Antiproliferative activity against human A549 cells at 10 uM after 24 hrs by MTS assay relative to control", "assay_type": "functional", "settings": "A549, 24 h"}, "A549 [7]": {"test_system": "A549", "assay": "Induction of apoptosis in human A549 cells assessed as late apoptotic cells at 2.5 uM after 8 hrs by Annexin V-FITC/propidium iodide staining-based flow cytometric analysis (reference value: 12.02%)", "assay_type": "functional"}, "Mus musculus [8]": {"test_system": "Mus musculus", "assay": "Toxicity in BALB/c nude mouse xenografted with human A549 cells assessed as change in body weight at 10 mg/kg, ip administered as daily dose for 16 days relative to control", "assay_type": "organism-based", "settings": "in vivo, 384 h"}, "Mus musculus [9]": {"test_system": "Mus musculus", "assay": "Toxicity in BALB/c nude mouse xenografted with human A549 cells at 10 mg/kg, ip administered as daily dose for 16 days relative to control", "assay_type": "organism-based", "settings": "in vivo, 384 h"}, "A549 [10]": {"test_system": "A549", "assay": "Induction of apoptosis in human A549 cells assessed as early apoptotic cells at 2.5 uM after 8 hrs by Annexin V-FITC/propidium iodide staining-based flow cytometric analysis (reference value: 1.64%)", "assay_type": "functional"}, "RAW264.7": {"test_system": "RAW264.7", "assay": "Antiinflammatory activity against mouse RAW264.7 cells assessed as inhibition of LPS-induced nitric oxide production at 10 uM after 24 hrs by Griess assay relative to control", "assay_type": "functional", "settings": "RAW264.7, 24 h"}, "A549 [11]": {"test_system": "A549", "assay": "Induction of apoptosis in human A549 cells assessed as early apoptotic cells at 5 uM after 8 hrs by Annexin V-FITC/propidium iodide staining-based flow cytometric analysis (reference value: 1.64%)", "assay_type": "functional"}, "SW480 [12]": {"test_system": "SW480", "assay": "Antiproliferative activity against human SW480 cells after 24 hrs by MTS assay", "assay_type": "functional, cell-based", "settings": "SW480, 24 h"}, "MCF7 [13]": {"test_system": "MCF7", "assay": "Antiproliferative activity against human MCF7 cells at 10 uM after 24 hrs by MTS assay relative to control", "assay_type": "functional", "settings": "MCF7, 24 h"}, "A549 [14]": {"test_system": "A549", "assay": "Induction of apoptosis in human A549 cells assessed as early apoptotic cells at 10 uM after 8 hrs by Annexin V-FITC/propidium iodide staining-based flow cytometric analysis (reference value: 1.64%)", "assay_type": "functional"}, "Homo sapiens": {"test_system": "Homo sapiens", "assay": "Inhibition of LPS-induced NF-kappaB (unknown origin) transactivation expressed in human SW480 cells at 10 uM administered 1 hr after LPS stimulation measured after 6 hrs by luciferase reporter gene assay relative to control", "assay_type": "cell-based"}, "MCF7 [15]": {"test_system": "MCF7", "assay": "Antiproliferative activity against human MCF7 cells after 24 hrs by MTS assay", "assay_type": "functional, cell-based", "settings": "MCF7, 24 h"}, "A549 [16]": {"test_system": "A549", "assay": "Induction of apoptosis in human A549 cells after 8 hrs by Annexin V-FITC/propidium iodide staining-based flow cytometric analysis", "assay_type": "functional, cell-based"}, "[17]": {"target": "T2, Tyrosine-protein phosphatase non-receptor type 1 (Homo sapiens) (UniProt P18031)", "T2 sequence (whole entry)": "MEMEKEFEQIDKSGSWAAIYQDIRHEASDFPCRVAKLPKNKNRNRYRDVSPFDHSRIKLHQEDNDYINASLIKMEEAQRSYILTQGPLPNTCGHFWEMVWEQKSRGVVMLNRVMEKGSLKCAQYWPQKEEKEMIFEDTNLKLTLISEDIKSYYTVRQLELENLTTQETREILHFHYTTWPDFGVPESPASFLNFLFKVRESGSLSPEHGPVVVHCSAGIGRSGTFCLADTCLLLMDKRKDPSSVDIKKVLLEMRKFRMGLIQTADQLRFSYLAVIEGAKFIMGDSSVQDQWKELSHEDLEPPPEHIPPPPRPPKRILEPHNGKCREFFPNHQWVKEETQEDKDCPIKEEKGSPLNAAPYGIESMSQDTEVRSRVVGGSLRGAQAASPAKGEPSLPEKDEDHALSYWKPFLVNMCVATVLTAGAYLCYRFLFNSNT", "settings": "at 10 µM", "description": "Inhibition of recombinant human PTP1B using pNPP as substrate at 10 uM after 30 mins relative to control"}, "A549 [18]": {"test_system": "A549", "assay": "Antitumor activity against human A549 cells xenografted in BALB/c nude mouse assessed as reduction in tumor mass at 10 mg/kg, ip administered as daily dose for 16 days relative to control", "assay_type": "functional", "settings": "384 h"}, "HepG2 [19]": {"test_system": "HepG2", "assay": "Antiproliferative activity against human HepG2 cells after 24 hrs by MTS assay", "assay_type": "functional, cell-based", "settings": "HepG2, 24 h"}, "A549 [20]": {"test_system": "A549", "assay": "Induction of apoptosis in human A549 cells assessed as late apoptotic cells at 10 uM after 8 hrs by Annexin V-FITC/propidium iodide staining-based flow cytometric analysis (reference value: 12.02%)", "assay_type": "functional"}, "A549 [21]": {"test_system": "A549", "assay": "Induction of apoptosis in human A549 cells assessed as early apoptotic cells at 20 uM after 8 hrs by Annexin V-FITC/propidium iodide staining-based flow cytometric analysis (reference value: 1.64%)", "assay_type": "functional"}, "A549 [22]": {"test_system": "A549", "assay": "Antiproliferative activity against human A549 cells after 24 hrs by MTS assay", "assay_type": "functional, cell-based"}, "A549 [23]": {"test_system": "A549", "assay": "Induction of apoptosis in human A549 cells assessed as late apoptotic cells at 5 uM after 8 hrs by Annexin V-FITC/propidium iodide staining-based flow cytometric analysis (reference value: 12.02%)", "assay_type": "functional"}}, "data": [{"smiles": "CC(C)=CCc1cc2c(cc1O)OCC(c1ccc(O)c3c1OC(C)(C)C=C3)=C2", "values": [{"measurement": "inhibition at 10 µM", "setting": "SW480 [1]", "result": 94.6, "unit": "%"}, {"measurement": "Activity", "setting": "A549 [2]", "result": 72.21, "unit": "%"}, {"measurement": "inhibition in vivo at 10 mg/kg", "setting": "A549 [3]", "result": 38.9, "unit": "%"}, {"measurement": "inhibition at 10 µM", "setting": "HepG2 [4]", "result": 93.6, "unit": "%"}, {"measurement": "inhibition", "setting": "[5]", "result": 3.8, "unit": "%"}, {"measurement": "inhibition at 10 µM", "setting": "A549 [6]", "result": 87.7, "unit": "%"}, {"measurement": "Activity", "setting": "A549 [7]", "result": 14.08, "unit": "%"}, {"measurement": "Activity", "setting": "Mus musculus [8]", "result": "Non-Toxic"}, {"measurement": "Activity", "setting": "Mus musculus [9]", "result": "Non-Toxic"}, {"measurement": "Activity", "setting": "A549 [10]", "result": 3.03, "unit": "%"}, {"measurement": "inhibition at 10 µM", "setting": "RAW264.7", "result": 36, "unit": "%"}, {"measurement": "Activity", "setting": "A549 [11]", "result": 2.42, "unit": "%"}, {"measurement": "IC50", "setting": "SW480 [12]", "result": "4.6 to 6.6", "unit": "µM"}, {"measurement": "inhibition at 10 µM", "setting": "MCF7 [13]", "result": 90.7, "unit": "%"}, {"measurement": "Activity", "setting": "A549 [14]", "result": 16.04, "unit": "%"}, {"measurement": "inhibition", "setting": "Homo sapiens", "result": 41.6, "unit": "%"}, {"measurement": "IC50", "setting": "MCF7 [15]", "result": "4.6 to 6.6", "unit": "µM"}, {"measurement": "Activity", "setting": "A549 [16]", "result": "Dose-dependent effect"}, {"measurement": "inhibition", "setting": "[17]", "result": 80.4, "unit": "%"}, {"measurement": "inhibition in vivo at 10 mg/kg", "setting": "A549 [18]", "result": 39.7, "unit": "%"}, {"measurement": "IC50", "setting": "HepG2 [19]", "result": "4.6 to 6.6", "unit": "µM"}, {"measurement": "Activity", "setting": "A549 [20]", "result": 32.67, "unit": "%"}, {"measurement": "Activity", "setting": "A549 [21]", "result": 22.81, "unit": "%"}, {"measurement": "Activity", "setting": "A549 [22]", "result": "Dose-dependent effect"}, {"measurement": "IC50", "setting": "A549 [22]; A549, 24 h", "result": 4.6, "unit": "µM"}, {"measurement": "Activity", "setting": "A549 [23]", "result": 17.07, "unit": "%"}]}]}
